Test results as given in patent US12589156B2, “Benzimidazole and benzimidazolone based protac compounds for the targeted degradation of leucine rich repeat kinase 2 (LRRK2)” (Arvinas Operations, Inc., priority 2023, dated 2026).

Molecular target: T1, WT LRRK2 (Homo sapiens, UniProt Q5S007)
T1 construct: endogenous in cells; host or cells: HEK293 (endogenous LRRK2 gene knock-in tagged with HiBit; stably expressing CMV-driven firefly luciferase)
Experiment: LRRK2 HiBit degradation assay (Nano-Glo Dual Luciferase) in HEK293 cells with HiBit-tagged endogenous LRRK2
Assay type: cell-based
Conditions: HiBit-tagged LRRK2 in HEK293 cells, 24 hours treatment; for Dmax: maximal degradation; for DC50: starting concentration 1 μM
Excerpt: Biological Assays Exemplary Assay for Testing LRRK2 Degradation Driven by Exemplary Hetero-Bifunctional Compounds Designed to Target LRRK2
The assay measures the degradation of LRRK2 in cells where the C-terminus (3′) of the endogenous gene has been tagged with a HiBit sequence in HEK293 cells. The cells also express firefly lucisferase, expressed from a Cytomegalovirus promoter and introduced into the HiBit tagged cells and stably expressed. The Nano-Glo® Dual Luciferase Reporter Assay System (Promega™, Madison, WI) was utilized.
Day 1—Preparation of Compound and Assay Plates. Two sets of plates were prepared: a triplicate set for the HiBit assay in white 384-well plates and a triplicate set of plate in black 384-well plates for the Alamar Blue cell viability assay. Briefly, the growth media (DMEM+Glutamax-10% fetal bovine serum-1% Penicillin-Streptomicin) from two T128 flasks was aspirated from the flasks. Cells were washed with Dulbecco's Phosphate Buffered Saline (dPBS) and aspirated. Trypsin (3 mL per flask) was added and the flasks were incubated for 2-3 minutes.
Ten mL of OptiMEM—10% fetal bovine-1% penicillin-streptomycin (hereinafter, “OptiMEM media”) was added to the flask and the cells and transferred to a 50 ml conical tube. A cell count (25 ul of cell into Effendorf vial+25 ul of Trypan Blue Stain) was performed and the cell density adjusted to 15,000 cell/45 μl/well (3.33×10^5/mL) in OptiMEM media.
Forty-five microliters of the cell suspension (15,000 cells) was aliquoted to each well of the white 384-well plate. The plates incubated at room temperature for 10 minutes before being placed in the 37° C.+5% CO2 incubator overnight
Day 2—Compound Treatment. Exemplary compounds were prepared at a 1 mM starting concentration and 1:3 serial dilution for 11 points CRC prepared and stored in the freezer. The Master Compound Plate was thawed overnight at room temperature. DMSO (20 μL) was added into column 24 of the Master Compound Plate for negative control and 20 μL of 300 μM of Compound 4 in column 23 as positive control.
Intermediate Compound Plate with 4% DMSO in OptiMEM Media. DMSO was added to warm OptiMEM media to achieve a 4% DMSO solution (approximately 50 mL/plate). One-hundred microliters of the OptiMEM-4% DMSO was aliquoted to each well of 384-Well Deep Well Microplates.
The Master Compound Plate and the Intermediate Compound Plate were spun down.
One microliter of compound from the Master Compound Plate was transferred into the Intermediate plate (a 1:100 dilution). The diluted mixture was mixed and 5 μL transferred into the assay plate (a 1:10 dilution) for the final starting concentration of 1 μM. The Treated Assay plates were incubated for 24 hours at 37° C.+5% CO2. The Master Compound Plate was sealed and store at room temperature for a second run that was performed within a week.
One set of white assay plates was warmed to room temperature (45 minute).
The One Glo luciferase mixture was prepared. The media from white 384-well assay plates was aspirated. Twenty-five μL of the One Glo luciferase mixture was added to each well of the assay plates. The plates were incubated on the bench (room temperature) for 45 minutes, including 10 minutes of shaking at 700 rpm. The luminescence of each plate was read on a plate reader.
1:100 DLR substrate and 1:100 LgBiT Protein dilution were added to the Promega Stop and Glo buffer and mixed just before addition to assay plates. Twenty-five microliters of Stop and Glo mixture was added to each well. Assay plates incubated for at least 45 minutes, including 10 minutes of shaking at 700 rpm. The luminescence of each plate was read on a plate reader.
Analysis of LRRK2 HiBit Screening assays. As mentioned above, plates were run in triplicate and the assay repeated twice (total of 6 replicate for exemplary compounds). For each treatment, measurements were taken for firefly luciferase for cell number, cell viability (Alamar Blue), and Nanoluc for the LRRK2-HiBit quantification. […]

T1 sequence (Q5S007 whole entry): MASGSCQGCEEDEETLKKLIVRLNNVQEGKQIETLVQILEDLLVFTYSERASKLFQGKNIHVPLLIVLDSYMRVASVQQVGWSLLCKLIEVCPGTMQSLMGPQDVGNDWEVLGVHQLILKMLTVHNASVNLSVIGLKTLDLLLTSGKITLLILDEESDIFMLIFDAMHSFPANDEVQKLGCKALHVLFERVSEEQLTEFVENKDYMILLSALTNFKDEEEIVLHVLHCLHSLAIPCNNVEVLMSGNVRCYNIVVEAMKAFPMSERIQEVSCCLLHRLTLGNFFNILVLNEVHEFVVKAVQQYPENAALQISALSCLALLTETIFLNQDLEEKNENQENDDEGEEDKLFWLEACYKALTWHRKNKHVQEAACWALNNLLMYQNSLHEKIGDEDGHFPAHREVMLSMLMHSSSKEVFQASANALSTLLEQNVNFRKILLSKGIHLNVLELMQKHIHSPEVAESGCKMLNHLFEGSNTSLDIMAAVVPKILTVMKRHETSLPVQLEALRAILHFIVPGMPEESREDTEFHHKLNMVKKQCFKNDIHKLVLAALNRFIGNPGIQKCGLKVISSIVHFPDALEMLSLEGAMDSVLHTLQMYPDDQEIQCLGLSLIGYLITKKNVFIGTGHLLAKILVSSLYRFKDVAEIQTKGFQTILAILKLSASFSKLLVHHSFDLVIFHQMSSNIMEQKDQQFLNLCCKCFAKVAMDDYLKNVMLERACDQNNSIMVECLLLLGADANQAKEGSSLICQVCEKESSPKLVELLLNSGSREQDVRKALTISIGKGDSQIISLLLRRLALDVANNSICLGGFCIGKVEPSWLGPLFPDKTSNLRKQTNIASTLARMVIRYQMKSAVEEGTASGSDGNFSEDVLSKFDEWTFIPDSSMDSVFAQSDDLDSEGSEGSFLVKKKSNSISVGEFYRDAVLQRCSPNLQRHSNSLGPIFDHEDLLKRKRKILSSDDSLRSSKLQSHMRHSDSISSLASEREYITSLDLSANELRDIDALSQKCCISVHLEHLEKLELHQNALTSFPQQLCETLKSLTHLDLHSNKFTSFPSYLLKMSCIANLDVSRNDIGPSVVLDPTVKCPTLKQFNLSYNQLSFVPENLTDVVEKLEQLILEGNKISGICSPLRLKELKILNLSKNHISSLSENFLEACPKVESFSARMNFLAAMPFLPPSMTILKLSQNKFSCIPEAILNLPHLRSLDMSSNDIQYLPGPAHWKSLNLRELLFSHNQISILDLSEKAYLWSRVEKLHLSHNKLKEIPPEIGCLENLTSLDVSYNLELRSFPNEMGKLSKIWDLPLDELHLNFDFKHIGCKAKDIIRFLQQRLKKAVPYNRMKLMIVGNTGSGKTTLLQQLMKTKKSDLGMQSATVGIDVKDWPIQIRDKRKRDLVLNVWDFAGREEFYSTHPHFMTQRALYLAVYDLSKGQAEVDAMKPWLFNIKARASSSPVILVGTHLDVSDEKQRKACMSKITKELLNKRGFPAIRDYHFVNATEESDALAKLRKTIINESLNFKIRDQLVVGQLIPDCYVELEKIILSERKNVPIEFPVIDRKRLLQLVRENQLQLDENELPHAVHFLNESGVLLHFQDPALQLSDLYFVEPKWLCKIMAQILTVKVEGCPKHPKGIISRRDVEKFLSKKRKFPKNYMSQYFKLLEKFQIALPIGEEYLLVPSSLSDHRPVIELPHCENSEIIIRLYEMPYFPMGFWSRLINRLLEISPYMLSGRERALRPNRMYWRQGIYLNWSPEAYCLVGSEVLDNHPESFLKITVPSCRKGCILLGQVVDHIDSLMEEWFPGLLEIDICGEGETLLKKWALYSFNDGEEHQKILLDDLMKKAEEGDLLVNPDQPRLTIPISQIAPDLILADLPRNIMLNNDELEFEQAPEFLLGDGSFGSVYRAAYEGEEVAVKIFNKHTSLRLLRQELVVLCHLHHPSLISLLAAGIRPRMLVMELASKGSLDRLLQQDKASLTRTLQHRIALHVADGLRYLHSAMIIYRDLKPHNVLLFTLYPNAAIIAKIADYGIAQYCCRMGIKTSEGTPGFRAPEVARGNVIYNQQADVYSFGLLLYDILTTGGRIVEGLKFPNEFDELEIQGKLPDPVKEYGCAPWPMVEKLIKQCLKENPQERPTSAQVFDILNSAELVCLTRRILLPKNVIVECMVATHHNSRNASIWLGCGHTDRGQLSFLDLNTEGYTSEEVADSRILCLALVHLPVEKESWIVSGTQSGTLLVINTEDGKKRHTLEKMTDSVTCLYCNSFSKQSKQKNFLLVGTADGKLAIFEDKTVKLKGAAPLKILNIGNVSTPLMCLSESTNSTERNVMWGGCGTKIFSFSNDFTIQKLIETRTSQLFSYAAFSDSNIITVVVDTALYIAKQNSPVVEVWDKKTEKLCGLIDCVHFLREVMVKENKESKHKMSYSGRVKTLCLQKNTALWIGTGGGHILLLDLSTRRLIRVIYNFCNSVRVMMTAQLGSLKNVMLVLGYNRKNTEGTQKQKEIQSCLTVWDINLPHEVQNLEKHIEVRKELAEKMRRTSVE

Dmax (HEK293, Table 2) [%]	Structure (SMILES)	DC50 (Table 2) [nM]	Dmax (Table 2) [%]
40	CC(C)Oc1cc2c(-c3cc(N4CCN(C[C@H]5CC[C@H](OC6CCN(c7ccc8c(c7)n(C)c(=O)n8C7CCC(=O)NC7=O)CC6)CC5)CC4)ncn3)n[nH]c2cn1 (single isomer, unassigned) [Compound 20, rel-3-[3-methyl-2-oxo-5-(4-{[(1r,4r)-4-[(4-{6-[5-(propan-2-yloxy)-1H-pyrazolo[3,4-c]pyridin-3-yl]pyrimidin-4-yl}piperazin-1-yl)methyl]cyclohexyl]oxy}piperidin-1-yl)-2,3-dihydro-1H-1,3-benzodiazol-1-yl]piperidine-2,6-dione]	0.56	
	COc1cc2c(-c3cc(N4CCN(C[C@H]5CC[C@H](OC6CCN(c7ccc8c(c7)n(C)c(=O)n8C7CCC(=O)NC7=O)CC6)CC5)CC4)ncn3)n[nH]c2cn1 (single isomer, unassigned) [Compound 21, rel-3-[3-methyl-2-oxo-5-(4-{[(1r,4r)-4-{[4-(6-{5-methoxy-1H-pyrazolo[3,4-c]pyridin-3-yl}pyrimidin-4-yl)piperazin-1-yl]methyl}cyclohexyl]oxy}piperidin-1-yl)-2,3-dihydro-1H-1,3-benzodiazol-1-yl]piperidine-2,6-dione]	≥ 1000	
46	Cn1c(=O)n(C2CCC(=O)NC2=O)c2ccc(N3CCC(O[C@H]4CC[C@H](CN5CCN(c6cc(-c7n[nH]c8cnc(C9(C#N)CCC9)cc78)ncn6)CC5)CC4)CC3)cc21 (single isomer, unassigned) [Compound 22, rel-1-{3-[6-(4-{[(1r,4r)-4-({1-[1-(2,6-dioxopiperidin-3-yl)-3-methyl-2-oxo-2,3-dihydro-1H-1,3-benzodiazol-5-yl]piperidin-4-yl}oxy)cyclohexyl]methyl}piperazin-1-yl)pyrimidin-4-yl]-1H-pyrazolo[3,4-c]pyridin-5-yl}cyclobutane-1-carbonitrile]	0.14	
45	Cn1c(=O)n(C2CCC(=O)NC2=O)c2ccc(N3CCC(O[C@H]4CC[C@H](CN5CCN(c6cc(-c7n[nH]c8cnc(C9(C#N)CC9)cc78)ncn6)CC5)CC4)CC3)cc21 (single isomer, unassigned) [Compound 23, rel-1-{3-[6-(4-{[(1r,4r)-4-({1-[1-(2,6-dioxopiperidin-3-yl)-3-methyl-2-oxo-2,3-dihydro-1H-1,3-benzodiazol-5-yl]piperidin-4-yl}oxy)cyclohexyl]methyl}piperazin-1-yl)pyrimidin-4-yl]-1H-pyrazolo[3,4-c]pyridin-5-yl}cyclopropane-1-carbonitrile]	0.56	
49	Cn1c(=O)n(C2CCC(=O)NC2=O)c2ccc(N3CCC(O[C@H]4CC[C@H](CN5CCN(c6cc(-c7n[nH]c8cnc(C9(C#N)CC%10(CC%10)C9)cc78)ncn6)CC5)CC4)CC3)cc21 (single isomer, unassigned) [Compound 24, rel-5-{3-[6-(4-{[(1r,4r)-4-({1-[1-(2,6-dioxopiperidin-3-yl)-3-methyl-2-oxo-2,3-dihydro-1H-1,3-benzodiazol-5-yl]piperidin-4-yl}oxy)cyclohexyl]methyl}piperazin-1-yl)pyrimidin-4-yl]-1H-pyrazolo[3,4-c]pyridin-5-yl}spiro[2.3]hexane-5-carbonitrile]	0.46	
57	CC(C)Oc1ccc2[nH]nc(-c3cc(N4CCC(O[C@H]5CC[C@H](OC6CCN(c7ccc8c(c7)n(C)c(=O)n8C7CCC(=O)NC7=O)CC6)CC5)CC4)ncn3)c2c1 (single isomer, unassigned) [Compound 27, rel-3-[3-methyl-2-oxo-5-(4-{[(1r,4r)-4-[(1-{6-[5-(propan-2-yloxy)-1H-indazol-3-yl]pyrimidin-4-yl}piperidin-4-yl)oxy]cyclohexyl]oxy}piperidin-1-yl)-2,3-dihydro-1H-1,3-benzodiazol-1-yl]piperidine-2,6-dione]	0.25	
	Cn1c(=O)n(C2CCC(=O)NC2=O)c2ccc(N3CCC(O[C@H]4C[C@H](OC5CCN(c6cc(-c7n[nH]c8ccc(OC9(C)CC9)cc78)ncn6)CC5)C4)CC3)cc21 (single isomer, unassigned) [Compound 29, rel-3-(3-methyl-2-oxo-5-{4-[(1r,3r)-3-[(1-{6-[5-(1-methylcyclopropoxy)-1H-indazol-3-yl]pyrimidin-4-yl}piperidin-4-yl)oxy]cyclobutoxy]piperidin-1-yl}-2,3-dihydro-1H-1,3-benzodiazol-1-yl)piperidine-2,6-dione]	0.16	54
	Cn1c(=O)n(C2CCC(=O)NC2=O)c2ccc(N3CCC(O[C@H]4C[C@H](OC5CCN(c6cc(-c7n[nH]c8cnc(OC9(C)CC9)cc78)ncn6)CC5)C4)CC3)cc21 (single isomer, unassigned) [Compound 30, rel-3-(3-methyl-2-oxo-5-{4-[(1r,3r)-3-[(1-{6-[5-(1-methylcyclopropoxy)-1H-pyrazolo[3,4-c]pyridin-3-yl]pyrimidin-4-yl}piperidin-4-yl)oxy]cyclobutoxy]piperidin-1-yl}-2,3-dihydro-1H-1,3-benzodiazol-1-yl)piperidine-2,6-dione]	0.065	48
	CC(C)Oc1cc2c(-c3cc(N4CCC(O[C@H]5C[C@H](OC6CCN(c7ccc8c(c7)n(C)c(=O)n8C7CCC(=O)NC7=O)CC6)C5)CC4)ncn3)n[nH]c2cn1 (single isomer, unassigned) [Compound 31, rel-3-(3-methyl-2-oxo-5-{4-[(1r,3r)-3-[(1-{6-[5-(propan-2-yloxy)-1H-pyrazolo[3,4-c]pyridin-3-yl]pyrimidin-4-yl}piperidin-4-yl)oxy]cyclobutoxy]piperidin-1-yl}-2,3-dihydro-1H-1,3-benzodiazol-1-yl)piperidine-2,6-dione]	160	61
	Cn1c(=O)n(C2CCC(=O)NC2=O)c2ccc(N3CCC(OC[C@H]4C[C@H](OC5CCN(c6cc(-c7n[nH]c8cnc(OC9(C)CC9)cc78)ncn6)CC5)C4)CC3)cc21 (single isomer, unassigned) [Compound 32, rel-3-[3-methyl-2-oxo-5-(4-{[(1r,3r)-3-[(1-{6-[5-(1-methylcyclopropoxy)-1H-pyrazolo[3,4-c]pyridin-3-yl]pyrimidin-4-yl}piperidin-4-yl)oxy]cyclobutyl]methoxy}piperidin-1-yl)-2,3-dihydro-1H-1,3-benzodiazol-1-yl]piperidine-2,6-dione]	0.33	51
	Cn1c(=O)n(C2CCC(=O)NC2=O)c2ccc(N3CCC(OC[C@H]4C[C@H](OC5CCN(c6cc(-c7n[nH]c8ccc(OC9(C)CC9)cc78)ncn6)CC5)C4)CC3)cc21 (single isomer, unassigned) [Compound 33, rel-3-[3-methyl-2-oxo-5-(4-{[(1r,3r)-3-[(1-{6-[5-(1-methylcyclopropoxy)-1H-indazol-3-yl]pyrimidin-4-yl}piperidin-4-yl)oxy]cyclobutyl]methoxy}piperidin-1-yl)-2,3-dihydro-1H-1,3-benzodiazol-1-yl]piperidine-2,6-dione]	0.14	62

Structure (SMILES)	Dmax (HEK293, Table 2) [%]	DC50 (Table 2) [nM]	Dmax (Table 2) [%]
Cn1c(=O)n(C2CCC(=O)NC2=O)c2ccc(N3CCC(O[C@H]4CC[C@H](CN5CCN(c6cc(-c7n[nH]c8cnc(OC(C)(C)C)cc78)ncn6)CC5)CC4)CC3)cc21 (single isomer, unassigned) [Compound 19, rel-3-[3-methyl-2-oxo-5-(4-{[(1r,4r)-4-[(4-{6-[5-(tert-butoxy)-1H-pyrazolo[3,4-c]pyridin-3-yl]pyrimidin-4-yl}piperazin-1-yl)methyl]cyclohexyl]oxy}piperidin-1-yl)-2,3-dihydro-1H-1,3-benzodiazol-1-yl]piperidine-2,6-dione]	76	28	
